Measurements from US20260169011A1, “METHODS AND COMPOSITIONS FOR PROVIDING CUSTOMIZED NUTRITIONAL SUPPLEMENTS” (Vibrant Holdings LLC, priority 2023, published 2026).
Where two headings read alike, the source gives them in different places.

How the values were obtained:
[1] = NutriPro test: serum, RBC and WBC nutrient values before and after ATB / customized blend; type: in vivo, human; details: for Actual Nutrient Value (ANV): before customized blend; for Pre-test biomarker level: before ATB; for concentration at 3 months: read-out: Follow-up Nutrient Level
Excerpt: The method for providing a nutritional supplement for a subject as disclosed herein is based on a comprehensive panel that assesses intracellular and extracellular levels of at least or up to 41 nutrients. […] Blood analysis using the method disclosed herein tests for nutrient levels in serum, red blood cells (RBCs), and white blood cells (WBCs). Additional genetic testing can assess patients' predispositions toward nutrient deficiencies. Based on the blood and genetic analysis results, a subsequent supplementation diet comprising supplements and food sources can be designed and implemented. The subject can be a human subject.
In some embodiments, the detection method is mass spectrometry.
The ‘NutriPro’ test is used to assess serum (extracellular), RBC, and WBC (intracellular) nutrient values along with genetic testing for any predispositions with could be affecting nutrient values in the body. If required, additional tests such as the gut zoomer, cardiovascular health, thyroid test, kidney function test, liver function test, etc, are carried out. FIG. 1 provides a schematic diagram of the process of the NutriPro test from the individual subject to the creation of customized nutritional blends.
The ATB is given to the individual for nutritional supplementation, and blood testing for nutrients in serum, RBC, and WBC is carried out after 3 or 6 months.
The assessed change is called the VAF.
After testing, the individual takes the ATB or the customized blend for the amount of time indicated.

[2] = Vibrant Absorption Factor (VAF): difference of post- and pre-supplementation nutrient values divided by ATB dosage
Excerpt: Improvement in nutrition can be determined by comparing the nutrient values in serum, RBC, and WBCs post-nutritional supplementation to the nutrient values in serum, RBC, and WBCs pre-nutritional supplementation. Based on the improvement, the change in the nutrient levels can be attributed to the per milligram dosage of the supplemented nutrients. The assessed nutritional change is the “Vibrant Absorption factor (VAF (see Equation (1) below). The VAF can be used to determine the subject's utilization of the supplemented nutrients, as determined by the difference in extracellular and intracellular nutrient values before and after supplementation. Based on the subject's utility or absorption of the nutrients, the dosage amount of the nutrient needed to be supplemented or increased to effect change of the subject's nutrient values into the optimum nutrient zone can be assessed. In various embodiments, the VAF is determined by administering a pre-determined formulation, referred to herein as the Absorption Testing Blend.
Next, the ATB is administered to the individual for a predefined period at step 320a, after which nutrient levels and the genetic nutrient profile are re-evaluated, to obtain the post-supplementation biomarker values at step 330.
This includes determining the VAF based on the difference between post- and pre-supplementation biomarker values, which is divided by the ATB dosage.
The assessed change is called the VAF. The VAF is used to understand how the individual's body is utilizing these nutrients, depending on the difference in extracellular and intracellular nutrient values before and after supplementation. Based on the body's utility or absorption of the nutrients, the amount of nutrients needed to be supplemented to alter the individual's nutrient values into the optimum nutrient zone is understood. The VAF calculations help in determining the appropriate dosages of nutrients required in the ‘customized blend.’

[3] = cited from earlier work
[4] = Extracellular (serum) nutrient levels by mass spectrometry (LC-MS, GC-MS, ICP-MS); details: Level: Serum, person
Excerpt: In some embodiments, the detection method assesses nutrients both in extracellular plasma and intracellular in RBC and WBC. In some embodiments, the detection method is mass spectroscopy-based. The extracellular and intracellular nutrient levels provide a comprehensive analysis of a subject's nutrient status, reflecting not only the intake levels but also the absorption levels into the cells.
In some aspects, the extracellular nutrient levels provide a snapshot of the status of nutrient baseline levels at a given time. It is a reflection of a person's diet over a narrow period of time. In contrast, the intracellular levels of nutrients provide information on the absorbed levels of nutrients, thus accounting for factors such as aging, lifestyle, chronic illness, medication, etc. that could interfere with absorption and can change the functional nutritional levels.
In some embodiments, the detection method is mass spectrometry. In some embodiments, the detection method is Liquid chromatography-mass spectrometry (LC-MS), Gas chromatography-mass spectrometry (GC-MS), or Inductively coupled plasma-mass-spectrometry (ICP-MS). In some embodiments, the detection method is Liquid chromatography-mass spectrometry (LC-MS). In some embodiments, the detection method is Gas chromatography-mass spectrometry (GC-MS). In some embodiments, the detection method is Inductively coupled plasma-mass-spectrometry (ICP-MS).
In some embodiments, the method provided herein evaluates nutrient levels, both in extracellular serum and inside (intracellular) red blood cells (RBC) and/or white blood cells (WBC). The extracellular nutrient levels provide a snapshot of the status of nutrient baseline levels at a given time. These extracellular nutrient levels are a reflection of a person's diet over a narrow period of time. In contrast, RBCs have a normal lifespan of 120 days, and thus intracellular assessments for nutrients in RBCs can provide information on nutrients over longer periods. Additionally, the intracellular levels of nutrients provide information on the absorbed levels of nutrients, thus accounting for factors such as, but not limited to, aging, lifestyle, chronic illness, and medication, that can interfere with absorption and can change the functional nutritional levels. Moreover, actual nutrient utilization occurs inside the cell owing to cellular metabolic processes. At times, nutrients could be present in serum, but poor cellular uptake may result in cells being devoid of these nutrients, thus giving rise to nutrient deficiencies owing to affected cellular activities. […] As a result, it is important to assess nutrients intracellularly in addition to extracellularly. Thus, the intracellular assessment provides information on cellular uptake and utilization of nutrients at the most fundamental level, enabling understanding of the root cause of nutrient deficiencies.
The subject individual fills out the health questionnaire (PHQ) which helps establishes factors such as symptoms, complications, comorbidities, and ongoing medications. The subject's blood is drawn and the extracellular serum and intracellular blood cells are tested for nutritional deficiencies via mass spectroscopy (e.g., Liquid chromatography-mass spectrometry (LC-MS), Gas chromatography-mass spectrometry (GC-MS), or Inductively coupled plasma-mass-spectrometry (ICP-MS)).

[5] = person three, serum, after customized blend
[6] = person two, serum, after customized blend
[7] = person one, serum, after customized blend
[8] = person two, level: Questionnaire
[9] = person one, level: Questionnaire
[10] = human, in vivo, Level: Questionnaire, person, after customized blend

Q: What does the source list for `[Cr]` [Chromium]?
A: Follow-up Nutrient Level [1, 5]: 0.277 ng/mL; Actual Nutrient Value (ANV) ([1]; person three, serum): 0.133 ng/mL

Q: Which results are given for `N=C(N)NCCC[C@H](N)C(=O)O` [L-Arginine]?
A: VAF ([2]; person two, serum): 0.9; Post-test biomarker level ([1]; female, human, in vivo): 67 nmol/mL; Follow-up Biomarker level [1, 6]: 232 nmol/mL; Pre-test biomarker level ([1]; person two, serum): 58 nmol/mL

Q: What does the source list for `O[C@H]1[C@H](O)[C@@H](O)[C@H](O)[C@@H](O)[C@H]1O` [Myo-Inositol]?
A: VAF ([2]; person two, serum): 0.55; Post-test biomarker level ([1]; female, human, in vivo): 12.9 nmol/mL; Follow-up Biomarker level [1, 6]: 47.5 nmol/mL; Pre-test biomarker level ([1]; person two, serum): 7.4 nmol/mL

Q: With `O=C1O[C@H]([C@@H](O)CO)C(O)=C1O` [Vitamin C (L-Ascorbic acid)] as the compound, how does the UTL ([3]; upper tolerable limit) read?
A: 2000 mg/day

Q: For `CC(C)C[C@H](N)C(=O)O` [L-Leucine], which VAF ([2]; person one, serum) is on record?
A: 5.429

Q: What about the Post-test biomarker level ([1]; person one, serum, after ATB) of the same compound?
A: 101 nmol/m

Q: What about the “Follow-up Biomarker level” value [1, 7] of the same compound?
A: 222 nmol/m

Q: And the Pre-test biomarker level ([1]; person one, serum)?
A: 82 nmol/m

Q: What does the source list for `[Zn]` [Zinc]?
A: VAF ([2]; person one, cells): 1.333; VAF [2, 8]: 0.2333; Post-test biomarker level ([1]; person one, cells, after ATB): 4.8 ng/MM WBC; Follow-up Biomarker level ([1]; person one, cells, after customized blend): 14.1 ng/MM WBC; Pre-test biomarker level ([1]; person one, cells): 2.8 ng/MM WBC; Follow-up Nutrient Level [1, 5]: 1550 ng/mL; Actual Nutrient Value (ANV) ([1]; person three, serum): 500 ng/mL; Post-test biomarker level ([1]; person two, level: Questionnaire, after ATB): 1100 ng/mL; Follow-up Biomarker level ([1]; person two, level: Questionnaire, after customized blend): 1470 ng/mL; Pre-test biomarker level [1, 8]: 750 ng/mL; UTL ([3]; Table 18, person one): 40 mg/day; UTL ([3]; Table 19, person two): 40 mg/day; UTL ([3]; Table 20, person three): 40 mg/day

Q: For `C[N+](C)(C)C[C@H](O)CC(=O)[O-]` [Free Carnitine], which UTL ([3]; upper tolerable limit) is on record?
A: 2000 mg/day

Q: For `O=C(O)c1cccnc1` [Vitamin B3], which VAF ([2]; person one, serum) is on record?
A: 0.7

Q: And the Post-test biomarker level ([1]; person one, serum, after ATB)?
A: 3.9 ng/mL

Q: What about the “Follow-up Biomarker level” value [1, 7] of the same compound?
A: 70.1 ng/mL

Q: What about the Pre-test biomarker level ([1]; person one, serum) of the same compound?
A: 1.1 ng/mL

Q: What about the UTL ([3]; Table 18, person one) of the same compound?
A: 35 mg/day

Q: What does the source list for `[K+]` [Potassium]?
A: Follow-up Nutrient Level ([4]; after customized blend): 3.4 mmol/L; Actual Nutrient Value (ANV) ([4]; before customized blend): 2.8 mmol/L

Q: For Vitamin K2, which VAF ([2]; person one, serum) is on record?
A: 0.0007

Q: And the Post-test biomarker level ([1]; person one, serum, after ATB)?
A: 0.017 ng/mL

Q: What about the “Follow-up Biomarker level” value [1, 7] of the same compound?
A: 0.1017 ng/mL

Q: What about the Pre-test biomarker level ([1]; person one, serum) of the same compound?
A: 0.01 ng/mL

Q: Which UTL ([3]; upper tolerable limit) does the source give for `[Na]` [Sodium] here?
A: 2,300 mg/day

Q: Which results are given for `N=C(N)NCCC[C@H](N)C(=O)O` [Arginine]?
A: VAF [2, 9]: 2.7; Actual Nutrient Value (ANV) ([1]; Level: Questionnaire, person): 84 nmol/mL; concentration at 3 months [1, 10]: 89.5 µM; Follow-up Biomarker level ([1]; male, human, in vivo): 234 nmol/mL; Post-test biomarker level ([1]; male, human, in vivo): 162 nmol/mL; Pre-test biomarker level [1, 9]: 135 nmol/mL

Q: With `Cc1c(C)c2c(c(C)c1O)CC[C@@](C)(CCC[C@H](C)CCC[C@H](C)CCCC(C)C)O2` [Vitamin E (alpha-tocopherol)] as the compound, how does the UTL ([3]; upper tolerable limit) read?
A: 1,100 IU/day

Q: For `[44Ca]` [Calcium, Ca 44], which UTL ([3]; upper tolerable limit) is on record?
A: 2,500 mg/day

Q: Which “Follow-up Nutrient Level” value [1, 5] does the source give for `CC(C)C[C@H](N)C(=O)O` [Leucine] here?
A: 225 nmol/m

Q: What about the “Actual Nutrient Value (ANV)” value ([1]; person three, serum) of the same compound?
A: 85 nmol/m

Q: With `[Zn]` [Zinc, Zn 67] as the compound, how does the UTL ([3]; upper tolerable limit) read?
A: 40 mg/day

Q: What does the source list for `N[C@@H](CO)C(=O)O` [Serine]?
A: Follow-up Nutrient Level [1, 5]: 131 nmol/mL; Actual Nutrient Value (ANV) ([1]; person three, serum): 62 nmol/mL; UTL ([3]; Table 20, person three): 12000 mg/day

Q: Which results are given for `NC(=O)NCCC[C@H](N)C(=O)O` [Citrulline]?
A: VAF ([2]; person two, serum): 0.76; Actual Nutrient Value (ANV) ([1]; Level: Questionnaire, person): 19.2 nmol/mL; concentration at 3 months [1, 10]: 24.9 µM; Post-test biomarker level ([1]; person two, serum, after ATB): 16.7 nmol/mL; Follow-up Biomarker level [1, 6]: 43.4 nmol/mL; Pre-test biomarker level ([1]; person two, serum): 9.1 nmol/mL

Q: Which VAF ([2]; person two, cells) does the source give for `[Mn+2]` [Manganese] here?
A: 7.684

Q: And the VAF ([2]; person two, serum)?
A: 0.2316

Q: What about the Post-test biomarker level ([1]; person two, cells, after ATB) of the same compound?
A: 7.8 pg/MM WBC

Q: And the “Follow-up Biomarker level” value ([1]; person two, cells, after customized blend)?
A: 67.5 pg/MM WBC

Q: What about the Pre-test biomarker level ([1]; person two, cells) of the same compound?
A: 0.5 pg/MM WBC

Q: What about the Post-test biomarker level ([1]; person two, serum, after ATB) of the same compound?
A: 0.62 ng/mL

Q: And the “Follow-up Biomarker level” value [1, 6]?
A: 2.1 ng/mL

Q: What about the Pre-test biomarker level ([1]; person two, serum) of the same compound?
A: 0.4 ng/mL

Q: What about the UTL ([3]; Table 19, person two) of the same compound?
A: 11 mg/day
